Values after ≈ are worked out from the molar mass of the structure shown.
Key:
Candida albican = conditions: Antimicrob. Agents Chemother., (1980), 18(2), 231-9; cited from earlier work
[1] = system: Candida and Cryptococcus strains (organism not given); assay: Broth microdilution antifungal activity, Table II first MIC/MCC column pair; format: cell-based; conditions: for MIC = Minimum inhibitory concentration (50% Inhibition) / MCC = Minimum cytolytic concentration: first column pair of Table II; for MIC = Minimum inhibitory concentration (50% Inhibition): YNB broth pH 7.0; for MCC = Minimum cytolytic concentration: subculture on SDA plate
Description: (§1) Organisms: Three strains of Candida (Candida parpsilosis, Candida tropicalis, Candida albicans-ATCC 36082) as well as Cryptococcus neoformans were used for the initial testing. […] All clinical strains used in this study were blood culture isolates from the Clinical Microbiology Laboratory of Harbor-UCLA Medical Center, Torrance, Calif. The organisms were maintained on Sabourahd Dextrose Agar slants at 4° C. For experimentation, singlet suspensions of each organism were prepared by growing the yeast overnight at 27° C. on a rotating drum in yeast-nitrogen base broth (YNB) with amino acids (Difco, Detroit, Mich.), pH 7.0 with 0.05M morpholinepropanesulfonic acid (MOPS). The suspension was then centrifuged and washed twice with 0.85% NaCl. This was followed by sonication of the washed cell suspension for 4s (Branson Sonifier, model 350, Danbury, Conn.). The singlet blastospores were counted in a hemocytometer and adjusted to the desired concentration in 0.85% NaCl.
(§2) Antifungal Activity: The antifungal activity of the compounds and Fluconazole against the Candida and Cryptococcus strains were determined using a modification of a broth microdilution technique. Test compounds were diluted in DMSO to a 1.0 mg/ml ratio then diluted to 64 μg/ml in YNB broth, pH 7.0 with MOPS (Fluconazole was used as the control). This was to provide a working solution of each compound. Using a 96-well plate, wells 1 and 3 through 12 were prepared with YNB broth, […] dilutions of the compound solution were made in wells 2 through 11 (concentration ranges were 64 to 0.125 μg/ml). Well one served as a sterility control and blank for the spectrophotometric assays. Well twelve served as a growth control. The microtiter plates were inoculated with 10 ul in each of well 2 through 11 (final inoculum size was 10^4 organisms/ml). Inoculated plates were incubated for 48 hrs., at 35° C. The MIC values were determined spectrophotometrically by measuring the absorbance at 420 nm (Automatic Microplate Reader, DuPont Instruments, Wilmington, Del.) after agitation of the plates for 2 min with a vortex-mixer (Vorte-Genie 2 Mixer, Scientific Industries, Inc., Bolemia, N.Y.). […] With the turbidity assay this was defined as the lowest drug concentration at which turbidity in the well was <50% of the control (IC50) Minimal Cytolytic Concentrations (MCC) were determined by subculturing all wells from the 96-well plate onto a Sabourahd Dextrose Agar (SDA) plate and incubated for 1 to 2 days at 35° C. and the viability was checked.

[2] = system: Candida and Cryptococcus strains (organism not given); assay: Broth microdilution antifungal activity, Table II second MIC/MCC column pair; format: cell-based; conditions: for MIC = Minimum inhibitory concentration (50% Inhibition) / MCC = Minimum cytolytic concentration: second column pair of Table II; for MIC = Minimum inhibitory concentration (50% Inhibition): YNB broth pH 7.0; for MCC = Minimum cytolytic concentration: subculture on SDA plate
Description: (§3) Organisms: Three strains of Candida (Candida parpsilosis, Candida tropicalis, Candida albicans-ATCC 36082) as well as Cryptococcus neoformans were used for the initial testing. Active compounds were then tested against fluconazole resistant Candida albicans, Candida krusei, Torulopsis glabrata, and Cryptococcus neoformans along with Sporothrix shenkii and Aspergillus flavus in the secondary round of testing. All clinical strains used in this study were blood culture isolates from the Clinical Microbiology Laboratory of Harbor-UCLA Medical Center, Torrance, Calif. The organisms were maintained on Sabourahd Dextrose Agar slants at 4° C. For experimentation, singlet suspensions of each organism were prepared by growing the yeast overnight at 27° C. on a rotating drum in yeast-nitrogen base broth (YNB) with amino acids (Difco, Detroit, Mich.), pH 7.0 with 0.05M morpholinepropanesulfonic acid (MOPS). The suspension was then centrifuged and washed twice with 0.85% NaCl. This was followed by sonication of the washed cell suspension for 4s (Branson Sonifier, model 350, Danbury, Conn.). The singlet blastospores were counted in a hemocytometer and adjusted to the desired concentration in 0.85% NaCl.
as §2

[3] = system: Candida and Cryptococcus strains (organism not given); assay: Broth microdilution antifungal activity, Table II fourth MIC/MCC column pair; format: cell-based; conditions: for MIC = Minimum inhibitory concentration (50% Inhibition) / MCC = Minimum cytolytic concentration: fourth column pair of Table II; for MIC = Minimum inhibitory concentration (50% Inhibition): YNB broth pH 7.0; for MCC = Minimum cytolytic concentration: subculture on SDA plate
Description: as §1, §2

[4] = system: Candida and Cryptococcus strains (organism not given); assay: Broth microdilution antifungal activity, Table II third MIC/MCC column pair; format: cell-based; conditions: for MCC = Minimum cytolytic concentration: subculture on SDA plate
Description: as §3, §2

N=C(N)c1ccc(-c2nnc(-c3ccc(C(=N)N)cc3)o2)cc1
MIC50 (Candida albican): > 60 µg/mL

COc1ccc(-c2nnc(-c3ccc(CN(C)C)cc3)o2)cc1 [Example 9j, 2-(4′-methoxyphenyl)-5-[4″-(dimethylaminomethyl)phenyl]-1,3,4-oxadiazole]
MIC = Minimum inhibitory concentration (50% Inhibition) ([1]; 48 hrs, 35° C.): 4 µg/mL (≈ 12.9 µM)
MCC = Minimum cytolytic concentration [1]: 32 µg/mL
MIC = Minimum inhibitory concentration (50% Inhibition) ([2]; 48 hrs, 35° C.): 8 µg/mL (≈ 25.9 µM)
MCC = Minimum cytolytic concentration [2]: 8 µg/mL
MIC = Minimum inhibitory concentration (50% Inhibition) ([3]; 48 hrs, 35° C.): 0.25 µg/mL (≈ 0.808 µM)
MCC = Minimum cytolytic concentration [3]: 8 µg/mL
MIC = Minimum inhibitory concentration (50% Inhibition) ([4]; 48 hrs, 35° C., YNB broth pH 7.0): 0.5 µg/mL (≈ 1.62 µM)
MCC = Minimum cytolytic concentration [4]: 0.5 µg/mL

OC(Cn1cncn1)(Cn1cncn1)c1ccc(F)cc1F [Fluconazole, reference compound]
MIC ([1]; Candida, 48 h, pH 7, first column pair of Table II, 48 hrs, 35° C., YNB broth pH 7.0, read-out: MIC = Minimum inhibitory concentration (50% Inhibition)): 0.25 µg/mL (≈ 0.816 µM)
MIC = Minimum inhibitory concentration (50% Inhibition) ([1]; 48 hrs, 35° C.): 0.5 µg/mL (≈ 1.63 µM)
MCC = Minimum cytolytic concentration [1]: >64 µg/mL
MIC ([2]; Candida, 48 h, pH 7, second column pair of Table II, 48 hrs, 35° C., YNB broth pH 7.0, read-out: MIC = Minimum inhibitory concentration (50% Inhibition)): 0.5 µg/mL (≈ 1.63 µM)
MIC = Minimum inhibitory concentration (50% Inhibition) ([2]; 48 hrs, 35° C.): 1.0 µg/mL (≈ 3.27 µM)
MCC = Minimum cytolytic concentration [2]: >64 µg/mL
MIC ([3]; Candida, 48 h, pH 7, fourth column pair of Table II, 48 hrs, 35° C., YNB broth pH 7.0, read-out: MIC = Minimum inhibitory concentration (50% Inhibition)): 1 µg/mL (≈ 3.27 µM)
MIC = Minimum inhibitory concentration (50% Inhibition) ([3]; 48 hrs, 35° C.): 0.5 µg/mL (≈ 1.63 µM)
MCC = Minimum cytolytic concentration [3]: >64 µg/mL
MCC = Minimum cytolytic concentration [4]: >64 µg/mL
